System: mdx−/− mice
Assay: Diaphragm muscle force measurement after treating mdx−/− mice with peptides comprising NEMO binding domains (Example 3)
Format: in vivo
Conditions: for treated mice in which force output was higher: diaphragm muscle
Protocol: In this Example, three week old male mdx−/− mice were treated with various peptides comprising NEMO binding domains. The diaphragm muscles of the mice were then evaluated to determine the ability of the peptides to treat muscle wasting in the mdx mice.
Three week old mdx−/− mice were treated by intraperitoneal injections with 200 μg of either a wild type peptide (SEQ ID NO 19) comprising a NEMO binding domain or a mutant peptide (SEQ ID NO 20). The mice were injected every three days for a total trial period of 27 days. After 27 days, the mice were sacrificed and the diaphragm muscles were removed.
The diaphragm muscles were placed in a chamber filled with Ringer solution and perfused continuously with an O2/CO2 mixture. The muscles were then attached using a steel hook to a force transducer and subsequently stimulated at varying frequencies. At each frequency, forces were allowed to reach a steady state before the data was recorded.

[1] = three week old male mdx−/− mice, 200 μg intraperitoneal every three days for 27 days, FIG. 5

Substance | treated mice in which force output was higher [1] | effect on dystrophic phenotype in affected mice (injection, summary statement on Example 3) | tetanic contractions (force) of diaphragm muscles at various stimulation frequencies (three week old male mdx−/− mice, 200 μg intraperitoneal every three days for 27 days, excised diaphragm in Ringer solution, compared to mutant peptide, FIG. 5)
mutant peptide: mutant peptide (SEQ ID NO 20) used as comparator to the wild type NEMO binding domain peptide (TALDASALQTE; NBD mutants) [reference compound] | one of the three | – | –
wild type peptide: wild type peptide (SEQ ID NO 19) comprising a NEMO binding domain (TALDWSWLQTE; NBD mutants) | three of the four | inhibit the dystrophic phenotype | generally higher tentanic contractions
